Measurements as given in BigSolDB 2.1.

Nc1cccnn1
Conditions | solubility (mole fraction)
in acetone, 288.25 K | 0.0068
in acetone, 293.15 K | 0.00801
in acetone, 298.35 K | 0.00907
in acetone, 303.05 K | 0.0102
in acetone, 308.35 K | 0.012
in acetone, 313.25 K | 0.0133
in acetone, 317.85 K | 0.0148
in acetone, 323.35 K | 0.0169
in acetone, 328.05 K | 0.0187
in aniline, 288.05 K | 0.0231
in aniline, 293.25 K | 0.0289
in aniline, 298.35 K | 0.0347
in aniline, 302.95 K | 0.0419
in aniline, 308.45 K | 0.0487
in aniline, 313.15 K | 0.0559
in aniline, 318.15 K | 0.0623
in aniline, 323.45 K | 0.0693
in aniline, 328.15 K | 0.076
in aniline, 333.35 K | 0.0825
in ethanol, 288.35 K | 0.0193
in ethanol, 294.05 K | 0.0213
in ethanol, 298.75 K | 0.0237
in ethanol, 303.15 K | 0.0266
in ethanol, 308.25 K | 0.0306
in ethanol, 313.35 K | 0.0349
in ethanol, 318.35 K | 0.0409
in ethanol, 323.35 K | 0.0492
in ethanol, 328.35 K | 0.0602
in ethanol, 333.15 K | 0.0713
in ethyl acetate, 288.45 K | 0.00228
in ethyl acetate, 293.15 K | 0.00275
in ethyl acetate, 298.65 K | 0.00324
in ethyl acetate, 302.75 K | 0.00383
in ethyl acetate, 307.15 K | 0.00434
in ethyl acetate, 312.95 K | 0.00522
in ethyl acetate, 318.65 K | 0.00588
in ethyl acetate, 322.65 K | 0.00665
in ethyl acetate, 328.25 K | 0.00738
in ethyl acetate, 332.35 K | 0.00813
in isopropanol, 288.15 K | 0.0122
in isopropanol, 298.15 K | 0.0172
in isopropanol, 303.55 K | 0.0203
in isopropanol, 308.45 K | 0.0233
in isopropanol, 312.85 K | 0.0277
in isopropanol, 317.75 K | 0.0315
in isopropanol, 323.25 K | 0.0373
in isopropanol, 328.05 K | 0.0412
in isopropanol, 332.95 K | 0.0465
in methanol, 288.15 K | 0.0356
in methanol, 293.05 K | 0.0398
in methanol, 298.15 K | 0.0455
in methanol, 303.25 K | 0.052
in methanol, 308.15 K | 0.0596
in methanol, 313.15 K | 0.0675
in methanol, 318.25 K | 0.076
in methanol, 323.55 K | 0.0865
in methanol, 328.15 K | 0.0981
in n-butanol, 289.35 K | 0.0105
in n-butanol, 293.35 K | 0.0126
in n-butanol, 298.05 K | 0.017
in n-butanol, 303.15 K | 0.0218
in n-butanol, 308.15 K | 0.0267
in n-butanol, 313.15 K | 0.0324
in n-butanol, 318.05 K | 0.0371
in n-butanol, 322.65 K | 0.042
in n-butanol, 327.95 K | 0.0469
in n-butanol, 332.95 K | 0.0519
in n-propanol, 288.45 K | 0.0161
in n-propanol, 293.05 K | 0.0185
in n-propanol, 298.35 K | 0.022
in n-propanol, 302.85 K | 0.0255
in n-propanol, 308.15 K | 0.0293
in n-propanol, 313.05 K | 0.0351
in n-propanol, 318.35 K | 0.0401
in n-propanol, 322.95 K | 0.0461
in n-propanol, 327.95 K | 0.0519
in n-propanol, 333.15 K | 0.0602
